Results published in patent US9512075B2 (OKAYAMA UNIVERSITY, priority 2012, dated 2016).
In brackets after ≈: the same amount, converted by molar mass. Like-named read-outs stand apart in the source and are kept apart here.

Experiments:
Format in all cases: cell-based
[1] = tested on: Staphylococcus aureus Smith strain; experiment: MIC for Staphylococcus aureus Smith strain; details: read-out: MIC Straphyrococcus aureus Smith
[2] = tested on: Enterococcus faecalis NCTC12201 strain (vancomycin-resistant Enterococcus: VRE); experiment: MIC for Enterococcus faecalis NCTC12201 strain (VRE); details: read-out: MIC Enterococcus faecalis NCTC 12201 (VRE)
[3] = tested on: Escherichia coli BE1121 strain; experiment: MIC for Escherichia coli BE1121 strain; details: Escherichia coli, BE1121STRAIN, read-out: MIC Escherichia coli BE1121
[4] = tested on: Clostridium perfringens PB6K strain; experiment: microbe, parasite or virus in culture; details: CD medium, 37° C. overnight, 10% CO2-containing anaerobic conditions; for MIC: Clostridium perfringens, PB6KSTRAIN, read-out: MIC Clostridium perfringens PB6K, PB6K strain
[5] = tested on: Clostridium difficile JCM1296 strain; experiment: microbe, parasite or virus in culture; details: for MIC: Clostridioides difficile, JCM1296, read-out: MIC Clostridium difficile JCM1296
[6] = tested on: Staphylococcus aureus MRSA No. 17 (methicillin-resistant Staphylococcus aureus: MRSA); experiment: MIC for Staphylococcus aureus MRSA No. 17; details: MRSA No. 17, regular bouillon medium, 37° C. overnight, turbidity, read-out: MIC Straphyrococcus aureus MRSA No. 17 (MRSA)
[7] = tested on: Staphylococcus aureus 209P strain; experiment: MIC for Staphylococcus aureus 209P strain; details: Staphylococcus aureus, read-out: MIC Straphyrococcus aureus 209P
[8] = tested on: Enterococcus faecalis 5038 strain; experiment: MIC for Enterococcus faecalis 5038 strain; details: read-out: MIC Enterococcus faecalis 5038
[9] = tested on: Escherichia coli K-12 strain; experiment: MIC for Escherichia coli K-12 strain; details: Escherichia coli, K12STRAIN, read-out: MIC Escherichia coli K12
[10] = Smith strain, regular bouillon medium, 37° C. overnight, turbidity
[11] = NCTC12201 strain (VRE), Heart Infusion Broth medium, 37° C. overnight, turbidity
[12] = BE1121 strain, regular bouillon medium, 37° C. overnight, turbidity
[13] = 209P strain, regular bouillon medium, 37° C. overnight, turbidity
[14] = 5038 strain, Heart Infusion Broth medium, 37° C. overnight, turbidity
[15] = K-12 strain, regular bouillon medium, 37° C. overnight, turbidity

Row | Structure (SMILES) | MIC [1, 10] [µg/mL] | MIC [2, 11] [µg/mL] | MIC [3, 12] [µg/mL] | MIC Clostridium perfringens PB6K ([4]; PB6K strain) [µg/mL] | MIC Clostridium difficile JCM1296 [5] [µg/mL] | MIC [6] [µg/mL] | MIC [7, 13] [µg/mL] | MIC [8, 14] [µg/mL] | MIC [9, 15] [µg/mL] | MIC [4] [µg/mL] | MIC [5] [µg/mL] | MIC [1] [µg/mL] | MIC [2] [µg/mL] | MIC ([8]; 5038STRAIN) [µg/mL] | MIC [3] [µg/mL] | MIC ([7]; 209P) [µg/mL] | MIC [9] [µg/mL]
1 | CCCCCCCCCCOCC(O)=C1C(=O)N(C(=O)OC(C)(C)C)c2cc(Cl)ccc21 [A012, N-Boc-3-decyloxyacetyl-6-chloro-2-oxyindole] | 256 (≈ 549 µM) | 256 (≈ 549 µM) | 256 (≈ 549 µM) | 32 (≈ 68.7 µM) | 32 (≈ 68.7 µM) | 256 (≈ 549 µM) | 256 (≈ 549 µM) | 256 (≈ 549 µM) | 256 (≈ 549 µM) |  |  |  |  |  |  |  | 
2 | CCCCCCCCCCOCC(O)=C1C(=O)N(C(C)=O)c2ccccc21 [A013, N-acetyl-3-decyloxyacetyl-2-oxyindole] | 256 (≈ 685 µM) | 32 (≈ 85.7 µM) | 256 (≈ 685 µM) |  |  | 256 (≈ 685 µM) | 256 (≈ 685 µM) | 64 (≈ 171 µM) | 256 (≈ 685 µM) | 0.5 (≈ 1.34 µM) | 0.25 (≈ 0.669 µM) |  |  |  |  |  | 
3 | CCCCC1CCC(C(O)=C2C(=O)N(C(=O)c3ccccc3)c3ccccc32)CC1 (stereo not drawn) [A014, N-benzoyl-3-(4-butylcyclohexylcarbonyl)-2-oxyindole] | 1 (≈ 2.48 µM) | 0.5 (≈ 1.24 µM) | 128 (≈ 317 µM) |  |  | 4 (≈ 9.91 µM) | 2 (≈ 4.96 µM) | 1 (≈ 2.48 µM) | 128 (≈ 317 µM) | 8 (≈ 19.8 µM) | 4 (≈ 9.91 µM) |  |  |  |  |  | 
4 | CCCCNC(=O)N1C(=O)C(=C(O)C2CCC(CCCC)CC2)c2ccccc21 (stereo not drawn) [A015, N-(butylaminocarbonyl)-3-(4-butylcyclohexylcarbonyl)-2-oxyindole] | 256 (≈ 642 µM) | 8 (≈ 20.1 µM) | 256 (≈ 642 µM) |  |  | 256 (≈ 642 µM) | 256 (≈ 642 µM) | 8 (≈ 20.1 µM) | 256 (≈ 642 µM) | 8 (≈ 20.1 µM) | 4 (≈ 10 µM) |  |  |  |  |  | 
5 | CCCCC1CCC(C(O)=C2C(=O)N(C(=O)Nc3ccccc3)c3ccccc32)CC1 (stereo not drawn) [A016, N-(phenylaminocarbonyl)-3-(4-butylcyclohexylcarbonyl)-2-oxyindole] | 4 (≈ 9.56 µM) | 0.5 (≈ 1.19 µM) | 256 (≈ 612 µM) |  |  | 256 (≈ 612 µM) | 128 (≈ 306 µM) | 1 (≈ 2.39 µM) | 256 (≈ 612 µM) | 4 (≈ 9.56 µM) | 0.25 (≈ 0.597 µM) |  |  |  |  |  | 
6 | CCCCCCCCCCOCC(O)=C1C(=O)N(C(C)=O)c2cc(Cl)ccc21 [A017, N-acetyl-3-decyloxyacetyl-6-chloro-2-oxyindole] |  |  | 128 (≈ 314 µM) |  |  | 16 (≈ 39.2 µM) | 128 (≈ 314 µM) |  | 128 (≈ 314 µM) | < 0.125 | < 0.125 | < 0.125 | < 0.125 | < 0.125 |  |  | 
7 | CCCCCCCCCCOC(C)C(O)=C1C(=O)N(C(C)=O)c2ccccc21 (stereo not drawn) [A018, N-acetyl-3-(2-decyloxypropionyl)-2-oxyindole] | 0.5 (≈ 1.29 µM) | 0.5 (≈ 1.29 µM) |  |  |  | 8 (≈ 20.6 µM) |  | 0.5 (≈ 1.29 µM) |  | 256 (≈ 661 µM) | 256 (≈ 661 µM) |  |  |  | < 0.125 | 64 (≈ 165 µM) | 256 (≈ 661 µM)
8 | CCCCCCCCCCOCC(O)=C1C(=O)N(C(=O)Nc2ccccc2)c2ccccc21 [A019, N-(phenylaminocarbonyl)-3-decyloxyacetyl-2-oxyindole] | 4 (≈ 8.88 µM) | 4 (≈ 8.88 µM) | 128 (≈ 284 µM) |  |  | 256 (≈ 568 µM) | 256 (≈ 568 µM) | 1 (≈ 2.22 µM) | 256 (≈ 568 µM) | 2 (≈ 4.44 µM) | 0.5 (≈ 1.11 µM) |  |  |  |  |  | 
9 | CCCCCCCCCCOC(C)C(O)=C1C(=O)N(C(=O)NCCCC)c2ccccc21 (stereo not drawn) [A020, N-(butylaminocarbonyl)-3-(2-decyloxypropionyl)-2-oxyindole] | 1 (≈ 2.25 µM) | 1 (≈ 2.25 µM) | 256 (≈ 576 µM) |  |  | 256 (≈ 576 µM) | 256 (≈ 576 µM) | 0.5 (≈ 1.12 µM) | 256 (≈ 576 µM) | 4 (≈ 9 µM) | 0.5 (≈ 1.12 µM) |  |  |  |  |  | 
10 | CCCCCCCCCCOC(C)C(O)=C1C(=O)N(C(=O)Nc2ccccc2)c2ccccc21 (stereo not drawn) [A021, N-(phenylaminocarbonyl)-3-(2-decyloxypropionyl)-2-oxyindole] | 0.5 (≈ 1.08 µM) | 0.5 (≈ 1.08 µM) | 256 (≈ 551 µM) |  |  | 256 (≈ 551 µM) | 128 (≈ 276 µM) | 0.5 (≈ 1.08 µM) | 256 (≈ 551 µM) | 2 (≈ 4.3 µM) | 1 (≈ 2.15 µM) |  |  |  |  |  | 
11 | CCCCCCCCCC(=O)N1C(=O)C(=C(C)O)c2ccccc21 [A022, N-decanoyl-3-acetyl-2-oxyindole] | 2 (≈ 6.07 µM) | 1 (≈ 3.04 µM) | 16 (≈ 48.6 µM) |  |  | 4 (≈ 12.1 µM) | 8 (≈ 24.3 µM) | 1 (≈ 3.04 µM) | 128 (≈ 389 µM) | 4 (≈ 12.1 µM) | 0.25 (≈ 0.759 µM) |  |  |  |  |  | 
12 | CCCCCCCCCCOCC(O)=C1C(=O)N(C(C)=O)c2ccc(F)cc21 [A023, N-acetyl-3-decyloxyacetyl-5-fluoro-2-oxyindole] | 1 (≈ 2.55 µM) | 0.25 (≈ 0.639 µM) | 128 (≈ 327 µM) |  |  | 64 (≈ 163 µM) | 128 (≈ 327 µM) | 0.25 (≈ 0.639 µM) | 128 (≈ 327 µM) | < 0.125 | < 0.125 |  |  |  |  |  | 
13 | CC(=O)N1C(=O)C(=C(O)CCCCCCCCCBr)c2ccccc21 [A024, N-acetyl-3-(10-bromodecanoyl)-2-oxyindole] | 4 (≈ 9.8 µM) | 1 (≈ 2.45 µM) |  |  |  | 16 (≈ 39.2 µM) |  | 0.5 (≈ 1.22 µM) |  | 0.5 (≈ 1.22 µM) | 0.5 (≈ 1.22 µM) |  |  |  | 16 (≈ 39.2 µM) | 16 (≈ 39.2 µM) | 128 (≈ 313 µM)
14 | O=C(Nc1ccccc1)N1C(=O)C(=C(O)CCCCCCCCCBr)c2ccccc21 [A025, N-(phenylaminocarbonyl)-3-(10-bromodecanoyl)-2-oxyindole] | 2 (≈ 4.12 µM) | 0.5 (≈ 1.03 µM) | 256 (≈ 527 µM) |  |  | 256 (≈ 527 µM) | 256 (≈ 527 µM) | 0.5 (≈ 1.03 µM) | 256 (≈ 527 µM) | 1 (≈ 2.06 µM) | 0.5 (≈ 1.03 µM) |  |  |  |  |  | 
15 | CCCCCCCCCC(O)=C1C(=O)N(C(C)=O)c2ccc(Br)cc21 [A026, N-acetyl-5-bromo-3-decanoyl-2-oxyindole] | 0.25 (≈ 0.612 µM) |  | 8 (≈ 19.6 µM) |  |  | 4 (≈ 9.8 µM) | 4 (≈ 9.8 µM) |  | 128 (≈ 313 µM) | 0.25 (≈ 0.612 µM) | < 0.125 |  | < 0.125 | < 0.125 |  |  | 
16 | CCCCC1CCC(C(O)=C2C(=O)N(C(=O)OC(C)(C)C)c3ccc(F)cc32)CC1 (stereo not drawn) [A027, N-Boc-3-(4-butylcyclohexylcarbonyl)-5-fluoro-2-oxyindole] | 16 (≈ 38.3 µM) | 8 (≈ 19.2 µM) | 128 (≈ 307 µM) |  |  | 128 (≈ 307 µM) | 128 (≈ 307 µM) | 8 (≈ 19.2 µM) | 128 (≈ 307 µM) | 2 (≈ 4.79 µM) | 1 (≈ 2.4 µM) |  |  |  |  |  | 
17 | CCCCCCCCCCOCC(O)=C1C(=O)N(C(C)=O)c2ccc(Br)cc21 [A029, N-acetyl-5-bromo-3-decyloxyacetyl-2-oxyindole] | 0.5 (≈ 1.11 µM) |  | 128 (≈ 283 µM) |  |  | 128 (≈ 283 µM) | 128 (≈ 283 µM) | 0.25 (≈ 0.553 µM) | 128 (≈ 283 µM) | < 0.125 | < 0.125 |  | < 0.125 |  |  |  | 
